ChEMBL document CHEMBL1147160, “Bioactive constituents from the marine crinoid Himerometra magnipinna” (2007)
The source made the active and inactive calls. The calls are words filed in the database; no cut-off is given here.

Legend:
[1] = test system: Streptomyces; test: Inhibition of hyphae formation in Streptomyces 85E at 80 ug/disk after 30 hrs by HF1 assay; assay type: functional; details: for zone of inhibition at 80 µg/disc: read-out: IZ
[2] = test system: Streptomyces; test: Inhibition of hyphae formation in Streptomyces 85E at 40 ug/disk after 30 hrs by HF1 assay; assay type: functional, organism-based

| Structure (SMILES) | zone of inhibition at 80 µg/disc [1] [mm] | Activity [2] | Activity [1] |
| --- | --- | --- | --- |
| CCCc1cc(O)c2c(c1)C(C1c3cc(O)cc(O)c3C(=O)c3c(O)cc(C(O)CC)cc31)c1cc(O)cc(O)c1C2=O (stereo not given) | 11 | inactive |  |
| COC1=C(Br)[C@H](O)[C@@]2(C=C1Br)CC(C(=O)NCCC(O)CCNC(=O)C1=NO[C@]3(C=C(Br)C(OC)=C(Br)[C@@H]3O)C1)=NO2 | 11 | inactive |  |
| COC1=C(Br)[C@H](O)[C@@]2(C=C1Br)CC(C(=O)NCCCCNC(=O)C1=NO[C@]3(C=C(Br)C(OC)=C(Br)[C@@H]3O)C1)=NO2 |  |  | inactive |
